Laboratory results from ChEMBL document CHEMBL5579892, “Rational Design, Synthesis, and Structure-Activity Relationship of a Novel Isoquinolinone-Based Series of HBV Capsid Assembly Modulators Leading to the Identification of Clinical Candidate AB-836” (J Med Chem, 2024).
Values after ≈ are worked out from the molar mass of the structure shown. Active and inactive are the calls of the source. No cut-off for these calls is given here.

Columns and labels:
Hepatitis B virus [1] = test: Antiviral activity against HBV infected in HepDE19 cells assessed as effect on pgRNA core protein at 1 uM; assay type: functional, organism-based
Hepatitis B virus [2] = test: Antiviral activity against HBV infected in HepG2-hNTCP-C4 cells assessed as inhibition of cccDNA formation preincubated with virus followed by compound addition; assay type: functional, organism-based
Hepatitis B virus [3] = test: Antiviral activity against HBV infected in HepG2-hNTCP-C4 cells assessed as inhibition of HBsAg formation preincubated with virus followed by compound addition; assay type: functional, organism-based
Hepatitis B virus [4] = test: Antiviral activity against HBV infected in NOD.CB17-Prkdcscid/J mouse assessed as log10 reduction in viral DNA at 3 mg/kg, po administered once daily for 7 days by qPCR analysis; assay type: functional; settings: time 7 day
[5] = AUC (0 to infinity) in CD-1 mouse at 10 mg/kg, po; assay type: ADME, organism-based; settings: in vivo
[6] = AUC (0 to infinity) in rat at 10 mg/kg, po; assay type: ADME, organism-based; settings: in vivo
[7] = Half-life in rat at 10 mg/kg, po; assay type: ADME, organism-based; settings: in vivo
Hepatitis B virus [8] = test: Antiviral activity against HBV infected in HepDE19 cells assessed as effect on capsid particle formation at 1 uM; assay type: functional, organism-based
[9] = Clearance in rat at 2 mg/kg, iv; assay type: ADME, organism-based; settings: in vivo
[10] = AUC (0 to infinity) in monkey at 10 mg/kg, po; assay type: ADME, organism-based, Macaca mulatta; settings: rhesus monkey, in vivo
[11] = Drug concentration in rat liver assessed as fold increase in EC90 concentration required for antiviral activity against HBV infected in HepDE19 cells at 10 mg/kg, po measured after 24 hrs; assay type: ADME, organism-based; settings: in vivo
Hepatitis B virus [12] = test: Antiviral activity against HBV infected in HepDE19 cells; assay type: functional, organism-based
[13] = Microsomal stability in human liver microsomes assessed as intrinsic clearance; assay type: ADME, Microsome; settings: read-out: CLH
[14] = Clearance in CD-1 mouse at 2 mg/kg, iv; assay type: ADME, organism-based; settings: in vivo
[15] = Half-life in monkey at 10 mg/kg, po; assay type: ADME, organism-based, Macaca mulatta; settings: rhesus monkey, in vivo
[16] = Microsomal stability in rat liver microsomes assessed as intrinsic clearance; assay type: ADME, Microsome; settings: read-out: CLH
[17] = Microsomal stability in monkey liver microsomes assessed as intrinsic clearance; assay type: ADME, Macaca mulatta, Microsome; settings: rhesus monkey, read-out: CLH
[18] = Drug concentration in CD-1 mouse liver at 10 mg/kg, po measured after 24 hrs; assay type: ADME, organism-based; settings: read-out: Ct
[19] = Clearance in monkey at 2 mg/kg, iv; assay type: ADME, organism-based, Macaca mulatta; settings: rhesus monkey, in vivo
[20] = Kinetic solubility in PBS at pH 7.4; assay type: physicochemical; settings: read-out: Kinetic_solubility
Hepatitis B virus [21] = test: Antiviral activity against HBV infected in NOD.CB17-Prkdcscid/J mouse assessed as log10 reduction in viral DNA at 10 mg/kg, po administered once daily for 7 days by qPCR analysis; assay type: functional; settings: time 7 day
[22] = Drug concentration in CD-1 mouse liver assessed as fold increase in EC90 concentration required for antiviral activity against HBV infected in HepDE19 cells at 10 mg/kg, po measured after 24 hrs; assay type: ADME, organism-based; settings: in vivo
[23] = Microsomal stability in mouse liver microsomes assessed as intrinsic clearance; assay type: ADME, Microsome; settings: read-out: CLH
Hepatitis B virus [24] = test: Antiviral activity against HBV infected in HepG2-hNTCP-C4 cells assessed as inhibition of HBsAg formation preincubated with compound followed by viral infection; assay type: functional, organism-based
Hepatitis B virus [25] = test: Antiviral activity against HBV infected in HepG2-hNTCP-C4 cells assessed as inhibition of cccDNA formation preincubated with compound followed by viral infection; assay type: functional, organism-based
[26] = Cytotoxicity against human HepDE19 cells by CellTiter-Glo analysis; assay type: toxicity, cell-based
[27] = Half-life in CD-1 mouse at 10 mg/kg, po; assay type: ADME, organism-based; settings: in vivo
[28] = Drug concentration in rat liver at 10 mg/kg, po measured after 24 hrs; assay type: ADME, organism-based; settings: read-out: Ct
Cytochrome P450 2C19 = Cytochrome P450 2C19 (Homo sapiens, UniProt P33261); test: Inhibition of CYP2C19 (unknown origin); assay type: ADME
Cytochrome P450 2C19, sequence (P33261 whole entry): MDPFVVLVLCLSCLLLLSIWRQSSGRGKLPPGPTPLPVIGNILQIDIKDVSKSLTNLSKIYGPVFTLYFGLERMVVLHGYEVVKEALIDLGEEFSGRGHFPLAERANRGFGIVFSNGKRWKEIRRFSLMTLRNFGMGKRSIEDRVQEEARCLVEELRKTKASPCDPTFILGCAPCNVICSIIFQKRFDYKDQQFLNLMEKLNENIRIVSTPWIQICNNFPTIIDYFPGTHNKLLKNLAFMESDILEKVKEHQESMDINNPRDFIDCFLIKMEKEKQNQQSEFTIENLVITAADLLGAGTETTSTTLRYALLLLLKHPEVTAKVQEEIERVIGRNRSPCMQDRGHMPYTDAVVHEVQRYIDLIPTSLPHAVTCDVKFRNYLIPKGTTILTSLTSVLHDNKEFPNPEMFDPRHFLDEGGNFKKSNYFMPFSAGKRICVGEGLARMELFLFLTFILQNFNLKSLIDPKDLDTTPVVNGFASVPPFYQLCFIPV

Hepatitis B virus [29] = test: Antiviral activity against HBV infected in NOD.CB17-Prkdcscid/J mouse assessed as log10 reduction in viral DNA at 30 mg/kg, po administered once daily for 7 days by qPCR analysis; assay type: functional; settings: time 7 day
Cytochrome P450 2D6 = Cytochrome P450 2D6 (Homo sapiens, UniProt P10635); test: Inhibition of CYP2D6 (unknown origin); assay type: ADME
Cytochrome P450 2D6, sequence (P10635 whole entry): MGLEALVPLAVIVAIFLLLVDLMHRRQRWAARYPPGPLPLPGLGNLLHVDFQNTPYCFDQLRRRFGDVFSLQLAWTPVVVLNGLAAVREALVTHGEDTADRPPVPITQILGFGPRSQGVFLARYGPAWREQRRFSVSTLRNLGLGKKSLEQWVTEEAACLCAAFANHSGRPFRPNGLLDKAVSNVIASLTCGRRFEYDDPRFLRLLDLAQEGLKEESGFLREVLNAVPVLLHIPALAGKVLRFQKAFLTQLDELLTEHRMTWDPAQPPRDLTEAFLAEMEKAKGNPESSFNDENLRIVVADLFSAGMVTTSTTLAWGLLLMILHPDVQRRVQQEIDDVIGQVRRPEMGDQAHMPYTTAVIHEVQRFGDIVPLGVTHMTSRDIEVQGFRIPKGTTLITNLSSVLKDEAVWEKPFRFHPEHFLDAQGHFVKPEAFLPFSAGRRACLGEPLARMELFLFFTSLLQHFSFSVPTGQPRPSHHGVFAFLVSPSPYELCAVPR

Cytochrome P450 3A4 = Cytochrome P450 3A4 (Homo sapiens, UniProt P08684); test: Inhibition of CYP3A4 (unknown origin); assay type: ADME
Cytochrome P450 3A4, sequence (P08684 whole entry): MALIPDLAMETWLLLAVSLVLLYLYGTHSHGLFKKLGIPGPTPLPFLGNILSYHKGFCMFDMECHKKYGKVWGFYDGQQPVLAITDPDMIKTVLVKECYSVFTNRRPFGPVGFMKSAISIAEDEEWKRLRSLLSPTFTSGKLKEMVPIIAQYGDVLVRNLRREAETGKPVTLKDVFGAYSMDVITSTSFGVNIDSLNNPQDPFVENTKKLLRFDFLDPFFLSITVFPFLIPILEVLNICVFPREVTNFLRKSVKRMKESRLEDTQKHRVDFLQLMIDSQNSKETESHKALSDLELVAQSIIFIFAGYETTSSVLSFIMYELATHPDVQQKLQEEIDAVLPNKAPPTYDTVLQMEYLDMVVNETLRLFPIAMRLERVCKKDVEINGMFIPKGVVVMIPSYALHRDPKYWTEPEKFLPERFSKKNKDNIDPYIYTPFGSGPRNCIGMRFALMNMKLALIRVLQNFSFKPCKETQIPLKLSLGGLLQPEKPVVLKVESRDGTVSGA

Cytochrome P450 2C9 = Cytochrome P450 2C9 (Homo sapiens, UniProt P11712); test: Inhibition of CYP2C9 (unknown origin); assay type: ADME
Cytochrome P450 2C9, sequence (P11712 whole entry): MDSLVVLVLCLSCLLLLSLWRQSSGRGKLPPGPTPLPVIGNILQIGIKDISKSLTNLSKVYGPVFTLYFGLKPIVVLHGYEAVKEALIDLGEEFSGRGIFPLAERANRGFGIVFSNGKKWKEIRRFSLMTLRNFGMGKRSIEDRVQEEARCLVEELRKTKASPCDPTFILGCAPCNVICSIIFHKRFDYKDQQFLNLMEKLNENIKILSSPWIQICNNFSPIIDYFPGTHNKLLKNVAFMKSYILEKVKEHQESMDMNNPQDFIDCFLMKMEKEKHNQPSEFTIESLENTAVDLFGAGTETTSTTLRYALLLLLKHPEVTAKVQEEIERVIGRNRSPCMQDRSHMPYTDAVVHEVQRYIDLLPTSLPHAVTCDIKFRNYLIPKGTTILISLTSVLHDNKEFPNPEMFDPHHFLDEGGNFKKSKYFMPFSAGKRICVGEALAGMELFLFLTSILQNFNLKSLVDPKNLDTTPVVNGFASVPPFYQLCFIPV

[30] = AUC (0 to infinity) in CD-1 mouse at 2 mg/kg, iv; assay type: ADME, organism-based; settings: in vivo
Hepatitis B virus [31] = test: Antiviral activity against HBV infected in NOD.CB17-Prkdcscid/J mouse assessed as log10 reduction in viral DNA at 30 mg/kg, po administered twice daily for 7 days by qPCR analysis; assay type: functional; settings: time 7 day
Hepatitis B virus [32] = test: Antiviral activity against HBV infected in po dosed NOD.CB17-Prkdcscid/J mouse assessed as reduction in viral DNA administered once daily or twice daily for 7 days by qPCR analysis; assay type: functional, organism-based; settings: dose 3-30 mg/kg, time 7.0 day
[33] = Oral bioavailability in CD-1 mouse at 10 mg/kg; assay type: ADME, organism-based; settings: in vivo
Cytochrome P450 1A2 = target: T1, Cytochrome P450 1A2 (Homo sapiens, UniProt P05177); test: Inhibition of CYP1A2 (unknown origin); assay type: ADME
T1 sequence (P05177 whole entry): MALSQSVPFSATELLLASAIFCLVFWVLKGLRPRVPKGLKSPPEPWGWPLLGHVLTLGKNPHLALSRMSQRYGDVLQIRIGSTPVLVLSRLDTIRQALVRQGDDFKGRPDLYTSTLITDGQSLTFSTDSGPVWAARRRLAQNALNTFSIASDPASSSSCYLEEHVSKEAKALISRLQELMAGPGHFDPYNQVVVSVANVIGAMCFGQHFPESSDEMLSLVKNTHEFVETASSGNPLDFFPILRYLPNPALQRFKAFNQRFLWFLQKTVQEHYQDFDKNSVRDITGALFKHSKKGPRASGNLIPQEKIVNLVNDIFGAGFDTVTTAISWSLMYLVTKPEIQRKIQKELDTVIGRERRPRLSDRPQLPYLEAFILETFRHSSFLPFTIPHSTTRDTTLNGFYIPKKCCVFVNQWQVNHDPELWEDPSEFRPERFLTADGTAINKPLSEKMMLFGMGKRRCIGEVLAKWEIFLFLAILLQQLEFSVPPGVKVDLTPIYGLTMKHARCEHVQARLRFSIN

Hepatitis B virus [34] = test: Antiviral activity against HBV infected in NOD.CB17-Prkdcscid/J mouse assessed as log10 reduction in viral DNA at 10 mg/kg, po administered twice daily for 7 days by qPCR analysis; assay type: functional; settings: time 7 day
Cytochrome P450 2B6 = target: T2, Cytochrome P450 2B6 (Homo sapiens, UniProt P20813); test: Inhibition of CYP2B6 (unknown origin); assay type: ADME
T2 sequence (P20813 whole entry): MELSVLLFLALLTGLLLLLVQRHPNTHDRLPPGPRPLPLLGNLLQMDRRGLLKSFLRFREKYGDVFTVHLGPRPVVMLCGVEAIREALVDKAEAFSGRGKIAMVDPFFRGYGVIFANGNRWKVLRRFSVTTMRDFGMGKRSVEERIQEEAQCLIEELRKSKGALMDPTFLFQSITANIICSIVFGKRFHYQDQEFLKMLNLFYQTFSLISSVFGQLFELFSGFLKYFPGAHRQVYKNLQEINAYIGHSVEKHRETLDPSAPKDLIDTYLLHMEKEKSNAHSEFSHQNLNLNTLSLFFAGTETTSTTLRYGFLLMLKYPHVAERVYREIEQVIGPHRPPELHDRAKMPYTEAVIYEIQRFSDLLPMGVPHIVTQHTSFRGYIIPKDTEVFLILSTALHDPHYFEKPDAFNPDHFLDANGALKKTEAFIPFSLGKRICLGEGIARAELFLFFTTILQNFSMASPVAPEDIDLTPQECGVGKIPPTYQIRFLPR

[35] = Half-life in CD-1 mouse at 2 mg/kg, iv; assay type: ADME, organism-based; settings: in vivo

C[C@H](c1c[nH]c(=O)c2cc(F)c(F)cc12)N(C)C(=O)Nc1ccc(F)c(C#N)c1
Activity (Hepatitis B virus [1]): inactive | Activity (Hepatitis B virus [2]): inactive | Activity (Hepatitis B virus [3]): inactive | log(activity) (Hepatitis B virus [4]): 1.4 | AUC(0-inf) [5]: 13000 ng·h/mL | AUC(0-inf) [6]: 5740 ng·h/mL | half-life [7]: 4.4 h | Activity (Hepatitis B virus [8]): inactive | clearance [9]: 11 mL/min/kg | AUC(0-inf) [10]: 9270 ng·h/mL | fold change (FC) [11]: 20 | EC50 (Hepatitis B virus [12]): 10 nM | microsomal CLint [13]: 31 µL/min/mg | clearance [14]: 13 mL/min/kg | half-life [15]: 14 h | microsomal CLint [16]: 46 µL/min/mg | microsomal CLint [17]: 34 µL/min/mg | concentration at 24 h [18]: 395 ng/mL | clearance [19]: 9 mL/min/kg | solubility kinetic [20]: 120 µM (≈ 48 µg/mL) | log(activity) (Hepatitis B virus [21]): 2.5 | fold change (FC) [22]: 25 | microsomal CLint [23]: 10 µL/min/mg | EC50 (Hepatitis B virus [24]): 197 nM | EC50 (Hepatitis B virus [25]): 175 nM | CC50 [26]: > 25000 nM | half-life [27]: 3.1 h | concentration at 24 h [28]: 334 ng/mL

CC(c1c[nH]c(=O)c2ccccc12)N(C)C(=O)Nc1ccc(F)c(Cl)c1 (stereo not drawn)
IC50 (Cytochrome P450 2C19): > 20000 nM | log(activity) (Hepatitis B virus [29]): 0.3 | IC50 (Cytochrome P450 2D6): > 20000 nM | IC50 (Cytochrome P450 3A4): > 20000 nM | AUC(0-inf) [5]: 13800 ng·h/mL | IC50 (Cytochrome P450 2C9): > 20000 nM | AUC(0-inf) [30]: 3520 ng·h/mL | log(activity) (Hepatitis B virus [31]): 1.4 | Activity (Hepatitis B virus [32]): Dose-Dependent Effect | bioavailability [33]: 80% | EC50 (Hepatitis B virus [12]): 45 nM | microsomal CLint [13]: 44 µL/min/mg | IC50 (Cytochrome P450 1A2): > 20000 nM | solubility kinetic [20]: 135 µM (≈ 50.5 µg/mL) | microsomal CLint [23]: 29 µL/min/mg | log(activity) (Hepatitis B virus [34]): 0.6 | IC50 (Cytochrome P450 2B6): > 20000 nM | CC50 [26]: > 25000 nM | half-life [27]: 2.2 h | half-life [35]: 2.4 h

C[C@H](c1c[nH]c(=O)c2cc(F)c(F)cc12)N(C)C(=O)Nc1cccc(F)c1
EC50 (Hepatitis B virus [12]): 37 nM | microsomal CLint [13]: 30 µL/min/mg | solubility kinetic [20]: > 200 µM | microsomal CLint [23]: 35 µL/min/mg | CC50 [26]: > 25000 nM

C[C@H](c1c[nH]c(=O)c2cc(F)c(F)cc12)N(C)C(=O)c1cc2cc(F)c(F)cc2[nH]1
EC50 (Hepatitis B virus [12]): 12 nM | microsomal CLint [13]: 14 µL/min/mg | solubility kinetic [20]: 5 µM (≈ 2.09 µg/mL) | microsomal CLint [23]: 22 µL/min/mg | CC50 [26]: > 25000 nM

C[C@H](c1c[nH]c(=O)c2cc(F)c(F)cc12)N(C)C(=O)c1cc2ccccc2[nH]1
EC50 (Hepatitis B virus [12]): 23 nM | microsomal CLint [13]: 26 µL/min/mg | solubility kinetic [20]: < 4 µM | microsomal CLint [23]: 50 µL/min/mg | CC50 [26]: > 25000 nM

C[C@H](c1c[nH]c(=O)c2cc(F)c(F)cc12)N(C)C(=O)Nc1ccc(F)c(F)c1
EC50 (Hepatitis B virus [12]): 13 nM | microsomal CLint [13]: 25 µL/min/mg | solubility kinetic [20]: 179 µM (≈ 70.4 µg/mL) | microsomal CLint [23]: 37 µL/min/mg | CC50 [26]: > 25000 nM

C[C@H](c1c[nH]c(=O)c2cc(F)ccc12)N(C)C(=O)Nc1ccc(F)c(Cl)c1
EC50 (Hepatitis B virus [12]): 20 nM | microsomal CLint [13]: 28 µL/min/mg | solubility kinetic [20]: 98 µM (≈ 38.4 µg/mL) | microsomal CLint [23]: 37 µL/min/mg | CC50 [26]: > 25000 nM

C[C@H](c1c[nH]c(=O)c2cc(F)c(F)cc12)N(C)C(=O)Nc1cccc(Cl)c1
EC50 (Hepatitis B virus [12]): 18 nM | microsomal CLint [13]: 32 µL/min/mg | solubility kinetic [20]: 72 µM (≈ 28.2 µg/mL) | microsomal CLint [23]: 30 µL/min/mg | CC50 [26]: > 25000 nM

Cc1cc(NC(=O)N(C)[C@H](C)c2c[nH]c(=O)c3cc(F)c(F)cc23)ccc1F
EC50 (Hepatitis B virus [12]): 7 nM | microsomal CLint [13]: 42 µL/min/mg | solubility kinetic [20]: 95 µM (≈ 37 µg/mL) | microsomal CLint [23]: 60 µL/min/mg | CC50 [26]: > 25000 nM
